Series [1] has as its system formalin foot mice. As to the kind of experiment: Formalin foot acute and chronic peripheral pain model, intrathecal application.
Series [2] has as its system formalin foot mice. As to the kind of experiment: Formalin foot acute and chronic peripheral pain model, subcutaneous injection, up and down method. Type of series: in vivo. The settings on record: Mus musculus, sc; subcutaneously, 5 minutes prior to formalin; up and down method of Dixon and Mood; block = 60% decrease of cumulated licking; read-out: ED50 for the reduction of paw licking by 60%. The protocol: This model involves pre-treatment with the test compound and injection of formalin (5% in 20 microliters) into the right hindpaw of mice. ACBC was injected subcutaneously 5 minutes prior to formalin injection. […] The up and down method of Dixon and Mood was used to establish the ED50.

A further series has as its system mice. As to the kind of experiment: Sedation observed during the formalin foot test, intrathecal application. The method, then:
At the same time as the analgesia was accessed, the sedation effects of ACBC were determined in the acute and chronic peripheral pain formalin foot model. […] The mice were monitored for 40 min for sedation. aCSF and morphine controls were also tested. The presence or absence of sedation was determined by an observer blinded to the treatment based on degree of spontaneous activity, posture and response to normal stimuli.

The subject of series [3] is Neurons of the ventrobasal nuclei (thalamocortical neurons). As to the kind of experiment: Current- and voltage-clamp recording of thalamic neurons in in vitro slice preparations. The settings on record: for equilibrium potential for the drug (intersection of drug and control I-V curves): voltage clamp, vs aCSF control curve.
The mark [4] stands for this setting: ACBC 5 μL of 250 μM 5 minutes before formalin 5% in 20 μL hindpaw, N=5, P<0.05 vs control.
[5] abbreviates: ACBC 1 μM, normalized to control 5 minutes prior to drug application, single neuron.

Molecules are shown by their SMILES. Entries after “also recorded” stand apart in the source; their conditions may differ. Marks after values point to notes of the source that are not given here.

As to `NC1(C(=O)O)CCC1` [ACBC, 1-amino-cyclobutane-1-carboxylic acid], in the series with formalin foot mice [1] (setting [4]), the “phase I licking (early phase, acute pain)” value was “significantly reduced; also recorded: greatly reduces” and the “phase II licking (late phase, chronic pain)” value is on record as “significantly reduced; also recorded: greatly reduces”. For the same molecule, the cumulative paw licking result with formalin foot mice [1] (ACBC 5 μL of 250 μM, monitored 40 minutes, p<0.05) is “significantly reduced”. In the series on formalin foot mice [1] (formalin foot test), the “analgesia compared with morphine, acute and chronic phases” value is “equal to that produced by morphine”. The ED50 with formalin foot mice [2] is 94 mg/kg. Besides, in the series with mice (mouse, in vivo), the behavioral toxicity result is “no observed behavioral toxicity”; the “sedation / gross appearance and behavior (in words)” value is “No sedation occurred”. Besides, the “Number of mice with sedation” value in the series with mice (mouse, in vivo, 40 min) is on record as 0*. Further, in series [3] (ACBC 1 μM), the “slope of the I-V curve” value is listed as “increased the slope of the I-V curve”; the “equilibrium potential for the drug (intersection of drug and control I-V curves)” value was −92 mV. Further, in series [3] (ACBC 1 μM, 3 min application, voltage-clamped at −60 mV, control 33 pA), the “holding current 20 minutes after application” value stood at 153 pA. In series [3] (setting [5]), the “Input resistance (Ri)” value is given as “increase in membrane input resistance; also recorded: decreased” and the “Membrane potential (Vm)” value is “decreased”. Further, the “tonic firing evoked by current pulse injection” value in series [3] (ACBC 1 μM, ventrobasal thalamus, holding potential −60 mV) is recorded as “depressed action potential firing; also recorded: depressed tonic firing”. In addition, the “persistence of induced outward current” value in series [3] (voltage clamped neurons) is given as “greater than 60 minutes”.
`NCC(=O)O` [Glycine, reference compound]: in series [3] (Glycine 150 μM), the “slope of the I-V curve” value is listed as “increased the slope of the I-V curve”; the “equilibrium potential for the drug (intersection of drug and control I-V curves)” value is −53 mV.
In the case of `CN1CC[C@]23c4c5ccc(O)c4O[C@H]2[C@@H](O)C=C[C@H]3[C@H]1C5` [Morphine, reference compound], the “phase I licking (early phase, acute pain)” value in the series on formalin foot mice [1] (setting [4]) was “Morphine <control”. Further, the “sedation / gross appearance and behavior (in words)” value in the series with mice (intrathecal, acute and chronic phase of formalin foot test) is listed as “nearly immobile”. Also, the “Number of mice with sedation” value in the series on mice (of 5 mice, intrathecal (ACBC 5 μL of 250 μM), monitored 40 min, blinded observer) came to 5.

One may read the ED50 as the dose at which the effect has come halfway, by size or by number of responders.

The values above are taken from patent US20140094446A1, “Cyclic Amino Acids for the Treatment of Pain” (Therexcell Pharma Inc., priority 2008, published 2014).
